Here are results for three molecules from US9034352B2, “Microbicide combinations containing silver” (Rohm and Haas Company, priority 2006, dated 2015).

Where two headings read alike, the source gives them in different places.

Common to all, as to experiment: Synergy test, high resolution MIC microtiter plate assay
Holding throughout (type): cell-based

Assay [1] has as its system Samonella choleraesuis (S. choleraesuis—ATCC #10708). The conditions noted are these: for MIC: Salmonella enterica, read-out: MIC of component acting alone (end point). From the text: (§1) One measure of synergism is the industrially accepted method described by Kull, F. C.; Eisman, P. C.; Sylwestrowicz, H. D. and Mayer, R. L., in Applied Microbiology 9:538-541 (1961), using the ratio determined by the formula: Ca/CA+Cb/CB=Synergy Index (“SI”) wherein:
(§2) CA=concentration of compound A (first component) in ppm, acting alone, which produced an end point (MIC of Compound A).
(§3) Ca=concentration of compound A in ppm, in the mixture, which produced an end point.
(§4) CB=concentration of compound B (second component) in ppm, acting alone, which produced an end point (MIC of Compound B).
(§5) Cb=concentration of compound B in ppm, in the mixture, which produced an end point.
(§6) When the sum of Ca/CA and Cb/CB is greater than one, antagonism is indicated. […] The lower the SI, the greater the synergy shown by that particular mixture. The minimum inhibitory concentration (MIC) of an antimicrobial compound is the lowest concentration tested under a specific set of conditions that prevents the growth of added microorganisms.
(§7) Synergy tests were conducted using standard microtiter plate assays with media designed for optimal growth of the test microorganism. Soybean Casein Digest Broth (Tryptic Soy Broth, TSB medium) or minimal salt medium supplemented with 0.2% glucose and 0.1% yeast extract (M9GY medium) was used for testing bacteria; Potato Dextrose Broth (PDB medium) was used for testing yeast and mold. In this method, a wide range of combinations of microbicides was tested by conducting high resolution MIC assays in the presence of various concentrations of the biocides. High resolution MICs were determined by adding varying amounts of microbicide to one column of a microtitre plate and doing subsequent ten-fold dilutions using an automated liquid handling system.
The synergy of the combinations of the present invention was determined against four bacteria, gram positive Staphylococcus aureus (S. aureus—ATCC #6538) and gram negative Pseudomonas aeruginosa (P. aeruginosa—ATCC #15442), Samonella choleraesuis (S. choleraesuis—ATCC #10708) and Esherichia coli (E. coli—ATCC #8739), a yeast, Candida albicans (C. albicans—ATCC 10231), and a mold, Aspergillus niger (A. niger—ATCC 16404). The bacteria were used at a concentration of about 1-6×10^6 bacteria per mL and the yeast and mold at 1-5×10^5 fungi per mL. These microorganisms are representative of natural contaminants in many consumer and industrial applications. […] (yeast and mold) or 30° C. (bacteria).
(§8) The end point values in the following examples for the silver-polymer complex are reported on an active silver ion basis.

The subject of assay [2] is Aspergillus niger (A. niger—ATCC 16404). The following applies: A. niger, Ag-polymer on active silver ion basis; for MIC: Aspergillus niger, read-out: MIC of component acting alone (end point).
From the text: as §1, §2, §3, §4, §5, §6, §7
(§9) The bacteria were used at a concentration of about 1-6×10^6 bacteria per mL and the yeast and mold at 1-5×10^5 fungi per mL. These microorganisms are representative of natural contaminants in many consumer and industrial applications. […] (yeast and mold) or 30° C. (bacteria).

The test system of assay [3] is Pseudomonas aeruginosa (P. aeruginosa—ATCC #15442). The following applies: Pseudomonas aeruginosa, ATCC15442, P. aeruginosa, Ag-polymer on active silver ion basis, read-out: MIC of component acting alone (end point).
From the text: as §1, §2, §3, §4, §5, §6, §7, §9

For assay [4], the system named is Staphylococcus aureus (S. aureus—ATCC #6538). The conditions noted are these: S. aureus, Ag-polymer on active silver ion basis; for MIC: Staphylococcus aureus, ATCC6538, read-out: MIC of component acting alone (end point).
From the text: as §1, §2, §3, §4, §5, §6, §7, §9

The subject of assay [5] is Candida albicans (C. albicans—ATCC 10231). The conditions noted are these: C. albicans, Ag-polymer on active silver ion basis; for MIC: Candida albicans, ATCC10231, read-out: MIC of component acting alone (end point).
From the text: as §1, §2, §3, §4, §5, §6, §7
(§10) […]. The bacteria were used at a concentration of about 1-6×10^6 bacteria per mL and the yeast and mold at 1-5×10^5 fungi per mL. These microorganisms are representative of natural contaminants in many consumer and industrial applications. […] (yeast and mold) or 30° C. (bacteria).
as §8

Assay [6] concerns Esherichia coli (E. coli—ATCC #8739). The conditions noted are these: Ag-polymer on active silver ion basis; for MIC: Escherichia coli, read-out: MIC of component acting alone (end point).
From the text: as §1, §2, §3, §4, §5, §6, §7, §10, §8

Setting [7] is: ATCC16404, 168 h, contact time 7 days.
The mark [8] stands for this setting: S. choleraesuis, contact time 48 hour, Ag-polymer on active silver ion basis.

A word on the MIC: it is the least concentration at which growth counts as inhibited. Regarding `CCCCCCCCn1sc(Cl)c(Cl)c1=O` [DCOIT, 4,5-dichloro-2-n-octyl-4-isothiazolin-3-one, reference compound], the MIC worked out at 1.5 µg/mL in assay [1]; 2 µg/mL in assay [2] (setting [7]); 1.5 µg/mL in assay [3] (contact time 24 hour); 2.9 µg/mL in assay [3] (contact time 48 hour); 0.29 µg/mL in assay [4] (contact time 24 hour); 0.29 µg/mL in assay [4] (contact time 48 hour). In addition, the minimal inhibitory concentration (MIC) in assay [5] (contact time 48 hour) amounted to 0.15 µg/mL; in assay [6] (ATCC8739, contact time 24 hour), 0.29 µg/mL; in assay [6] (ATCC8739, contact time 48 hour), 0.43 µg/mL.
As for `CCCCCCCCn1sccc1=O` [OIT, 2-n-octyl-4-isothiazolin-3-one, reference compound], the MIC in assay [1] (S. choleraesuis, contact time 24 hour, Ag-polymer on active silver ion basis) is 361 µg/mL; in assay [1] (setting [8]) it was 361 µg/mL; in assay [2] (ATCC16404, 72 h, contact time 3 days), 3.9 µg/mL; in assay [2] (setting [7]), 5.76 µg/mL; in assay [3] (contact time 24 hour), 444 µg/mL; in assay [4] (contact time 24 hour) it was 72.8 µg/mL. For the same molecule, the MIC was found to be 72.8 µg/mL in assay [4] (contact time 48 hour); 0.81 µg/mL in assay [5] (contact time 24 hour); 0.99 µg/mL in assay [5] (contact time 48 hour); 294 µg/mL in assay [6] (ATCC8739, contact time 24 hour); 294 µg/mL in assay [6] (ATCC8739, contact time 48 hour).
In the case of “C12-C16 alkyl dimethylbenzylammonium chloride [reference compound]”, the “MIC of component acting alone (end point)” value came to 6.9 ppm in assay [1] (setting [8]); 194 ppm in assay [2] (contact time 3 days); 603 ppm in assay [2] (contact time 7 days); 19.4 ppm in assay [4] (contact time 24 hour); 19.4 ppm in assay [4] (contact time 48 hour); 40.3 ppm in assay [5] (contact time 24 hour). In addition, the “MIC of component acting alone (end point)” value amounted to 98 ppm in assay [5] (contact time 48 hour) and 4.9 ppm in assay [6] (contact time 48 hour).
